From ChEMBL document CHEMBL1921757, “Small molecule probes of the receptor binding site in the Vibrio cholerae CAI-1 quorum sensing circuit” (Bioorg Med Chem, 2011)

Tests used:
[1] = biological target: T1, CAI-1 autoinducer sensor kinase/phosphatase CqsS (Vibrio cholerae serotype O1 (strain ATCC 39315 / El Tor Inaba N16961)) (UniProt Q9KM66); test: Ratio of compound IC50 to Ph-CAI-1 IC50 for CqsS receptor in Vibrio cholerae MM920 assessed as inhibition of quorum sensing regulated CAI-1 induced bioluminescence after 4 hrs by scintillation counting
T1 sequence (whole entry): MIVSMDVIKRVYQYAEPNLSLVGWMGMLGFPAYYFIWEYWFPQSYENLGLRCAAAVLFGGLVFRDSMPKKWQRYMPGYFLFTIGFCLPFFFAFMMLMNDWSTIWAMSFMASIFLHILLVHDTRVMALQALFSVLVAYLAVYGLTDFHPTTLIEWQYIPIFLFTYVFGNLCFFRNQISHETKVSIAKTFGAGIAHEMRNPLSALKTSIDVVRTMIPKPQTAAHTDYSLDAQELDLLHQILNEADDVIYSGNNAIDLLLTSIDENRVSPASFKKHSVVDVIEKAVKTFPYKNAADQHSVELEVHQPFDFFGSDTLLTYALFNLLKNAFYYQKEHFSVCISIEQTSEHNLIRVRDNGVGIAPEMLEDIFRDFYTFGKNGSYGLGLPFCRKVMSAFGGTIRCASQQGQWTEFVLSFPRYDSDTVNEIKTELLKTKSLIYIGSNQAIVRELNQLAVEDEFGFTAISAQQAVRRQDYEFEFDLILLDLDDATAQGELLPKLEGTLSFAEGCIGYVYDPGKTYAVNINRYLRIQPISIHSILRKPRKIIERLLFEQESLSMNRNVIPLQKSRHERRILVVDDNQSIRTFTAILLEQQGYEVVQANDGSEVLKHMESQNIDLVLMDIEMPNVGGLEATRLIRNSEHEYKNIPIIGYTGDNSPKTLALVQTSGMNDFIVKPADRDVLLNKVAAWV

Vibrio cholerae = test: Antibacterial activity against Vibrio cholerae MM920 assessed as growth inhibition after 4 hrs by spectrophotometry; assay type: organism-based; details: in vivo
[2] = biological target: T2, CAI-1 autoinducer sensor kinase/phosphatase CqsS (Vibrio cholerae serotype O1 (strain ATCC 39315 / El Tor Inaba N16961), UniProt Q9KM66); test: Antagonist activity at CqsS receptor in Vibrio cholerae MM920 assessed as inhibition of quorum sensing regulated CAI-1 induced bioluminescence after 4 hrs by scintillation counting; assay type: functional
T2 sequence (Q9KM66 whole entry): T1 sequence (whole entry)

[3] = biological target: T1, CAI-1 autoinducer sensor kinase/phosphatase CqsS (Vibrio cholerae serotype O1 (strain ATCC 39315 / El Tor Inaba N16961)); test: Ratio of compound EC50 to (S)-CAI-1 EC50 for CqsS receptor in cqsA-deficient, luxQ-deficient Vibrio cholerae MM920 harboring cosmid pBB1 carrying Vibrio harveyi luxCDABE gene assessed as induction of quorum sensing regulated bioluminescence after 4 hrs by scintillation counting
[4] = biological target: T2, CAI-1 autoinducer sensor kinase/phosphatase CqsS; test: Agonist activity at CqsS receptor in cqsA-deficient, luxQ-deficient Vibrio cholerae MM920 harboring cosmid pBB1 carrying Vibrio harveyi luxCDABE gene assessed as induction of quorum sensing regulated bioluminescence after 4 hrs by scintillation counting; assay type: functional
[5] = biological target: T1, CAI-1 autoinducer sensor kinase/phosphatase CqsS (Vibrio cholerae serotype O1 (strain ATCC 39315 / El Tor Inaba N16961)); test: Antagonist activity at CqsS receptor in Vibrio cholerae MM920 assessed as inhibition of quorum sensing regulated CAI-1 induced bioluminescence after 4 hrs by scintillation counting relative to Ph-CAI-1; assay type: functional
[6] = biological target: T1, CAI-1 autoinducer sensor kinase/phosphatase CqsS (Vibrio cholerae serotype O1 (strain ATCC 39315 / El Tor Inaba N16961)); test: Agonist activity at CqsS receptor in cqsA-deficient, luxQ-deficient Vibrio cholerae MM920 harboring cosmid pBB1 carrying Vibrio harveyi luxCDABE gene assessed as quorum sensing regulated bioluminescence after 4 hrs by scintillation counting relative to (S)-CAI-1; assay type: functional

Structure (SMILES)	Ratio IC50 [1]	growth inhibition (GI) (Vibrio cholerae)	IC50 [2]	Ratio EC50 [3]	EC50 [4]	Imax [5]	Emax [6]
CCCCCCCCCC(=O)C(O)c1cccc(OC)c1 (racemic)	> 9	Not Active	> 500 µM				
CCCCCCCCCC(=O)CCC		Not Active		> 200	> 50000 nM		
CCCCCCCCCC(=O)C(O)c1cccc(O)c1 (racemic)	0.71	Not Active	36 µM			123%	
CCCCCCCCCC(=O)C(N)c1ccccc1.Cl (racemic)	> 9	Not Active	> 500 µM				
CCCCCCCCCC(=O)[C@H](O)CC		Not Active					
CCCCCCCCCC(=O)[C@H](C)O		Not Active		2.6	340 nM		96%
CCCCCCCCCC(=O)C(S)CC (centres undefined)		Not Active		8.6	1600 nM		67%
CCCCCCCCCC(=O)C(O)c1ccccc1Br (racemic)	> 9	Not Active	> 500 µM				
CCCCCCCCCC(=O)C(O)c1ccc(OC)cc1 (racemic)	> 9	Not Active	> 500 µM				
CCCCCCCCCCC(=O)CC		Not Active		> 200	> 50000 nM		
CCCCCCCCCC(=O)C(O)c1ccc(Cl)cc1 (racemic)	> 9	Not Active	> 500 µM				
CCCCCCCCCC(=O)C(N)CC.Cl (centres undefined)		Not Active		0.27	210 nM		105%
CCCCCCCCCC(=O)C(O)c1ccc(F)cc1 (racemic)	2.7	Not Active	137 µM			125%	
CCCCCCCCCC(=O)C(O)c1ccccc1Cl (racemic)	> 9	Not Active	> 500 µM				
CCCCCCCCCC(=O)C(O)c1ccc(O)cc1 (racemic)	1.5	Not Active	78 µM			119%	
CCCCCCCCCC(=O)C(O)c1ccc(Br)cc1 (racemic)	2.6	Not Active	185 µM			71%	
CCCCCCCCCC(=O)C(O)C(C)(C)C (racemic)		Not Active		> 200	> 50000 nM		
CCCCCCCCCC(=O)C(O)c1cccc(F)c1 (racemic)	3.5	Not Active	178 µM			112%	
CCCCCCCCCC(=O)C(O)c1ccccc1OC (racemic)	> 9	Not Active	> 500 µM				
CCCCCCCCCC(=O)C(O)c1ccccc1C (racemic)	> 9	Not Active	> 500 µM				
CCCCCCCCCCC(O)CC (centres undefined)		Not Active		> 200	> 50000 nM		

Structure (SMILES)	Ratio IC50 [1]	growth inhibition (GI) (Vibrio cholerae)	IC50 [2]	Ratio EC50 [3]	EC50 [4]	Imax [5]	Emax [6]
CCCCCCCCCC(=O)[C@@H](O)CC		Not Active					
CCCCCCCCCC(=O)C(O)c1ccc(C)cc1 (racemic)	2.2	Not Active	114 µM			99%	
CCCCCCCCCC(=O)C(O)c1cc(F)ccc1F (racemic)	1.3	Not Active	68 µM			48%	
CCCCCCCCCC(=O)C(Br)CC (centres undefined)		Not Active		13	2400 nM		73%
CCCCCCCCCC(=O)C(O)c1cccc(C)c1 (racemic)	0.91	Not Active	46 µM			58%	
CCCCCCCCCC(=O)C(O)CCC (racemic)		Not Active		6	780 nM		84%
CCCCCCCC(=O)[C@H](O)CC		Not Active					
CCCCCCCCCC(O)CCC (centres undefined)		Not Active		> 200	> 50000 nM		
CCCCCCCCCC(=O)C(O)c1cccc(Cl)c1 (racemic)	> 9	Not Active	> 500 µM				
CCCCCCCCCC(=O)C(O)c1cccc(Br)c1 (racemic)	> 9	Not Active	> 500 µM				
CCCCCCCCCC(=O)C(O)c1ccccc1 (racemic)	1	Not Active	55 µM			100%	
CCCCCCCC(=O)[C@@H](O)CC		Not Active					
CCCCCCCCC(=O)[C@@H](O)CC		Not Active		4.6	1100 nM		100%
CCCCCCCCCC(=O)C(=O)CC		Not Active		14	3200 nM		92%
CCCCCCCCCC(=O)C(O)C(C)C (racemic)		Not Active		21	7160 nM		71%
CCCCCCCCCCC(=O)[C@@H](O)CC		Not Active		8.4	2090 nM		98%
CCCCCCCCCC(=O)C(Cl)CC (centres undefined)		Not Active		> 200	> 50000 nM		24%
CCCCCCCCC(=O)[C@H](O)CC		Not Active		6.7	1610 nM		95%
CCCCCCCCCC(O)C(=O)CC (centres undefined)		Not Active		84			38%
CCCCCCCCCC(=O)C(O)c1ccc(C)c(C)c1 (racemic)	> 9	Not Active	> 500 µM				
CCCCCCCCCC(O)C(O)CC (mixture of isomers)		Not Active		18	4300 nM		83%
